We go through seven compounds from patent US7062219B2, “Protein fragment complementation assays for high-throughput and high-content screening” (Odyssey Thera Inc., priority 1997, dated 2006).

“Also recorded” adds a separate entry of the source.

The target of one assay is T1, Chk1/p53 interaction (Homo sapiens, UniProt O14757).
T1 construct: expressed in transfected cells; host or cells: HEK293E
T1 sequence (O14757 1-476): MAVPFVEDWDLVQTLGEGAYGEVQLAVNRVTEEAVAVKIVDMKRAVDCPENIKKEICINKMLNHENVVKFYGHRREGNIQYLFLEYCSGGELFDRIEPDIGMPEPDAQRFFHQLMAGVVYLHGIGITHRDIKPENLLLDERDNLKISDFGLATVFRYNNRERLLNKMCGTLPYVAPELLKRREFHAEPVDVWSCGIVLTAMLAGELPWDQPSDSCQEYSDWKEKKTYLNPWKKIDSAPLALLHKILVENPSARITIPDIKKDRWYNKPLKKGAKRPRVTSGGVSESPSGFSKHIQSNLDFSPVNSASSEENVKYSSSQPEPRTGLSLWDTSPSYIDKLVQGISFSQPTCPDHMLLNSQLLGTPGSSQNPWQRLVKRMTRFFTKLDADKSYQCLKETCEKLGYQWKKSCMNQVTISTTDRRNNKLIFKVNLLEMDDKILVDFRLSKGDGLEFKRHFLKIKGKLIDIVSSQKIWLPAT
Briefly: beta-lactamase PCA (BLA PCA) for Chk1/p53 in HEK293E cells. It counts as cell-based. Conditions: HEK293E cells treated with 300 nM camptothecin; 10 micromolar DBH, 50 micromolar Go6976. The method, then:
For the BLA PCA, the genes of interest—which were known to be involved in DNA damage response pathways—were fused to BLA reporter fragments, and co-transfected in pairs (in 6 replicates) into HEK293E cells. Specifically, interactions between two key proteins, p53 and the checkpoint kinase, Chk1, were evaluated for their response to the DNA damaging agent camptothecin (CPT) and various known drugs or compounds. Full length cDNAs (sequence verified) encoding p53 [NM_000546] and Chk1 [NM_001274] were amplified by PCR and the resulting fragments fused in-frame to the 3′-end of BLA[1] or BLA[2] through a flexible 10 amino acid linker. The resulting BLA[1]-p53, BLA[2]-p53, and BLA[2]-Chk1 constructs contained an EBNA-1 origin for episomal replication in HEK293E cells, but no selectable markers for long term maintenance in cell culture. All constructs were sequenced to confirm the integrity of the reporter-gene fusion prior to use in assays. […] Hydrolysis of the beta-lactam ring by reconstituted BLA releases free coumarin which has a blue fluorescence. […] For each protein pair, the rate of hydrolysis of the substrate was determined immediately after addition of substrate by a kinetic assay on a Molecular Devices Gemini XS plate reader. Accumulated fluorescent substrate was excited at 345 nm and detected at 440 nm every 10 minutes for a 90 minute period. […]

The next assay deals with p53/p53 interaction. In words: high-content IFP PCA for p53/p53, nuclear mean fluorescence. Conditions: Trichostatin A 0.5 micromolar; for effect on p53/p53 interaction in both assays (absence and presence of CPT): unstimulated and 500 nM CPT-stimulated, LY294002 25 micromolar, SB 203580 25 micromolar, Geldanamycin 2.5 micromolar; for effect on p53/p53 interaction (nuclear mean fluorescence) in the presence of CPT: 500 nM CPT 16 hours, MS-275 10 micromolar, HA 14-1 2 micromolar. It counts as cell-based, human. The source says:
Open reading frames of full-length human p53 were fused in-frame to the 5′-end of IFP[1] and the 3′-end of IFP[2] to generate the following constructs in a pcDNA3.1 (Invitrogen) backbone: p53-IFP[1] and IFP[2]-p53. The final p53-IFP[1] construct contained a Zeocin selectable marker, while the IFP[2]-p53 construct contained a hygromycin selectable marker. All fusions were through a flexible linker encoding a 10-amino acid peptide (GlyGlyGlyGlySer)2, also referred to throughout as (GGGGS)2 (SEQ ID No.1). DNAs from recombinant constructs were isolated on a Beckman FX robotic workstation (Beckman Coulter, Fullerton, Calif.) using Qiagen Turbo BioRobot Prep kits or manually using Qiagen Midi Prep kits. Isolated DNAs were quantitated and then normalized to a concentration of 50 ng/microliter.
Approximately 24 hours prior to transfection cells were seeded into 96 well poly-D-Lysine coated plates (Greiner) using a Multidrop 384 peristaltic pump system (Thermo Electron Corp., Waltham, Mass.) at a density of 7,500 cells per well. A total of 100 ng of DNA (p53–IFP[1] and IFP[2]-p53) was co-transfected using Fugene 6 (Roche) according to the manufacturer's protocol. Cells expressing the PCA pair in the absence of stimulation were incubated with medium containing drugs for 30 minutes, 90 minutes, and 8 hours. Alternatively, cells stimulated with camptothecin (CPT) were pre-treated with drugs for 2 hours, then incubated with 500 nM CPT for an additional 16 hours in the presence of the following test compounds that were known or suspected to affect the p53 pathway: CPT, genistein, Trichostatin A, MS-275, LY294002, SB203580, HA14-1, or Geldanamycin, at the concentrations indicated in the Legend to FIG. 4. […] Fluorescence resulting from IFP PCA was captured using the Discovery-1automated fluorescence imager (Molecular Devices, Inc.) equipped with a robot arm (CRS Catalyst Express; Thermo Electron Corp., Waltham, Mass.). Images were acquired for YFP fluorescence (excitation filter: 480/40 nm; emission filter 535/50 nm), Hoechst fluorescence (excitation filter: 360/40 nm; emission filter 465/30 nm), and Texas Red fluorescence (excitation filter: 560/50 nm; emission filter 650/40 nm). […]
Automated image analysis was performed using Image J freeware to quantitate the level of fluorescence contributed by the PCA in each image. For the p53:p53 PCA, background contributed by cellular auto-fluorescence was subtracted from each image, then the mean pixel fluorescence intensity was determined within the nucleus of each cell. […] Quantitative values for the unstimulated PCA are shown in mauve, with data from the CPT-stimulated assay shown in blue. […]

For another assay, the system named is p50/p65 complex. Briefly: stable HEK293T p50/p65 YFP PCA cell line, nuclear translocation (N:C ratio). Particulars: 10 micromolar compound, 25 ng/ml TNF 30 minutes. It counts as cell-based. How it is done:
Stable cell lines represent the gold standard for HTS since the assays can be reconstructed at any time from frozen stocks of cells. […] First, cells were co-transfected with YFP[2]-p65 encoding vectors, and stable cell lines were selected using 100 micrograms/ml of Hygromycin B (Invitrogen). Selected cell lines were then transfected with YFP[1]-p50. Stable cell lines expressing YFP[1]-p50/YFP[2]-p65 were isolated following double antibiotic selection with 50 μg/ml Hygromycin B and 500 μg/ml Zeocin. Cell clones stably expressing the fusion genes were identified by immunoblot analysis and fluorescence microscopy. A single cell line of each transfectant was selected for further characterization. Fluorescence of these lines is stable over at least 25 passages (data not shown). A stable, MEK/ERK cell line—constructed as described below—was used as a control for TNF effects. Fugene 6 (Roche) was used for all the transfections according to manufacturer's directions. Cells stably expressing YFP[1]-p50/YFP[2]-p65 were seeded at 20,000 cells/well in black-walled poly-lysine coated 96 well plate (Greiner). Twenty-four hours later, the cells were incubated with human TNF-alpha (Roche) for 30 min. Nuclei were stained with Hoechst 33342 (Molecular Probes) at 10 micrograms/ml for 10 min. Cells were rinsed with HBSS (Invitrogen) and kept in the same buffer. Fluorescence was visualized and images were acquired using a Discovery-1 automated fluorescence imager (Molecular Devices, Inc.) equipped with excitation and emission filters 470/35 and 535/60, respectively. […] For the high throughput screening campaign described below, cells were pretreated with compounds (10 micromolar) for 60 minutes and then stimulated with TNFalpha for 30 minutes in the presence of drugs. Cells were then fixed with 2% formaldehyde in HBSS and subsequently stained with Hoechst 33342. All liquid handling was done using a Biomek FX (Beckman) instrument and images were acquired as described above. Images were analyzed using Image J. Translocation is assessed by calculating the nuclear/cytoplasmic ratio of the mean fluorescence intensity for a population of cells (denoted as n) over several images for a given condition.
Genesis Plus is a collection of 960 diverse compounds, and includes compounds with known toxicity or fluorescent properties. Inclusion of compounds with such properties is important in HTS assay validation, as they might complicate analysis. The final concentration of compounds in wells was 10 micromolar, and all wells contained 0.5% DMSO concentration. […] Following fixation and staining of nuclei, fluorescence was analyzed on the automated fluorescent microscopy platform (Discovery 1; Universal Imaging/Molecular Devices Corp.). […]

`Cn1c2ccccc2c2c3c(c4c5ccccc5n(CCC#N)c4c21)CNC3=O` [Go6976]: at Chk1/p53 interaction, the “effect on the interaction between Chk1 and p53 (mean rate of hydrolysis of BLA substrate)” value is recorded as “significant effects”.
For the compound `C[S+]([O-])c1ccc(-c2nc(-c3ccncc3)c(-c3ccc(F)cc3)[nH]2)cc1` (centres unmarked) [SB 203580], the “effect on p53/p53 interaction in both assays (absence and presence of CPT)” value in the assay with p53/p53 interaction is “increased association”.
Regarding `Nc1ccccc1NC(=O)c1ccc(CNC(=O)OCc2cccnc2)cc1` [MS-275], in the assay with p53/p53 interaction, the “effect on p53/p53 interaction (nuclear mean fluorescence) in the presence of CPT” value is listed as “significantly stimulated”.
`NC1=N/C(=C2/CCNC(=O)c3[nH]ccc32)C(=O)N1` [DBH]: on Chk1/p53 interaction, the “effect on the interaction between Chk1 and p53 (mean rate of hydrolysis of BLA substrate)” value is “significant effects”.
With `CC(/C=C/C(=O)NO)=C\[C@@H](C)C(=O)c1ccc(N(C)C)cc1` [Trichostatin A], in the assay on p53/p53 interaction, the “effect on p53/p53 interaction (nuclear mean fluorescence) in the presence of CPT” value was “dramatic increase; also recorded: significantly stimulated”; the “effect on p53/p53 interaction in both assays (absence and presence of CPT)” value was “potentiating effect”.
Consider `C=C(C)[C@H]1Cc2c(ccc3c2O[C@@H]2COc4cc(OC)c(OC)cc4[C@@H]2C3=O)O1` [rotenone], for which, in the assay on p50/p65 complex, the “result in Genesis Plus library screen of p50/p65 PCA” value was “called as hits”.
On the same count and under the same terms, for `Cn1c(=O)[nH]c(=O)c2[nH]cnc21` [3-methylxanthine] the value was “called as hits”.
